{"source": "patent US12129246B1", "about": "“Hydroquinazoline derivatives for the treatment of a disease or disorder” (Novartis AG, priority 2023, dated 2024)", "key": {"monkey NPR1": {"molecular_target": "monkey NPR1 (Macaca fascicularis, UniProt A0A7N9DBT9)", "sequence (A0A7N9DBT9 entry or part of it)": "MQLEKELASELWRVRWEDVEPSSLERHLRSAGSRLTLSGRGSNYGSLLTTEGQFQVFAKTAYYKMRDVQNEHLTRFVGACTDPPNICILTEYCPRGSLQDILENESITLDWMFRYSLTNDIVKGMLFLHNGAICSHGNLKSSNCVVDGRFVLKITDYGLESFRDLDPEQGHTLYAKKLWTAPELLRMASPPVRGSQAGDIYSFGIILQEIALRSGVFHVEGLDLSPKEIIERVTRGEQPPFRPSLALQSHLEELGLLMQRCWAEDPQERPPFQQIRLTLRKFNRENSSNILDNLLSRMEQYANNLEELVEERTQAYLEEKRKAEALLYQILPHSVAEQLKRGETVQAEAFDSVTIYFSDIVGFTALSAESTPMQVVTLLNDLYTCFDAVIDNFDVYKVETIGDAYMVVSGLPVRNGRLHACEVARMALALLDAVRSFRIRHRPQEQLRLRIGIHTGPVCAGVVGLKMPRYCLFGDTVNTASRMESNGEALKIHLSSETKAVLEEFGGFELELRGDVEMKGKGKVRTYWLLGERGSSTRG", "assay": "Cellular cGMP production assay, monkey NPR1 expressing CHO-K1 cells (CisBio HTRF)", "format": "cell-based", "conditions": "for Monkey NPR1 Amax (% of ANP): maximum cGMP production as percentage of the maximum cGMP produced with ANP", "outline": "(§1)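 Cells receive IBMX (1 mM) assay buffer plus test compound over twelve threefold dilutions starting at 30 μM, and cGMP accumulates for 30 min at 37 °C. Lysates are then incubated one hour at room temperature with d2-labelled cGMP and cryptate-labelled antibody before time-resolved fluorescence reading.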"}, "human NPR1": {"molecular_target": "T1, human NPR1 (Homo sapiens, UniProt P16066)", "T1 construct": "host or cells: CHO-K1", "T1 sequence (P16066 33-1061)": "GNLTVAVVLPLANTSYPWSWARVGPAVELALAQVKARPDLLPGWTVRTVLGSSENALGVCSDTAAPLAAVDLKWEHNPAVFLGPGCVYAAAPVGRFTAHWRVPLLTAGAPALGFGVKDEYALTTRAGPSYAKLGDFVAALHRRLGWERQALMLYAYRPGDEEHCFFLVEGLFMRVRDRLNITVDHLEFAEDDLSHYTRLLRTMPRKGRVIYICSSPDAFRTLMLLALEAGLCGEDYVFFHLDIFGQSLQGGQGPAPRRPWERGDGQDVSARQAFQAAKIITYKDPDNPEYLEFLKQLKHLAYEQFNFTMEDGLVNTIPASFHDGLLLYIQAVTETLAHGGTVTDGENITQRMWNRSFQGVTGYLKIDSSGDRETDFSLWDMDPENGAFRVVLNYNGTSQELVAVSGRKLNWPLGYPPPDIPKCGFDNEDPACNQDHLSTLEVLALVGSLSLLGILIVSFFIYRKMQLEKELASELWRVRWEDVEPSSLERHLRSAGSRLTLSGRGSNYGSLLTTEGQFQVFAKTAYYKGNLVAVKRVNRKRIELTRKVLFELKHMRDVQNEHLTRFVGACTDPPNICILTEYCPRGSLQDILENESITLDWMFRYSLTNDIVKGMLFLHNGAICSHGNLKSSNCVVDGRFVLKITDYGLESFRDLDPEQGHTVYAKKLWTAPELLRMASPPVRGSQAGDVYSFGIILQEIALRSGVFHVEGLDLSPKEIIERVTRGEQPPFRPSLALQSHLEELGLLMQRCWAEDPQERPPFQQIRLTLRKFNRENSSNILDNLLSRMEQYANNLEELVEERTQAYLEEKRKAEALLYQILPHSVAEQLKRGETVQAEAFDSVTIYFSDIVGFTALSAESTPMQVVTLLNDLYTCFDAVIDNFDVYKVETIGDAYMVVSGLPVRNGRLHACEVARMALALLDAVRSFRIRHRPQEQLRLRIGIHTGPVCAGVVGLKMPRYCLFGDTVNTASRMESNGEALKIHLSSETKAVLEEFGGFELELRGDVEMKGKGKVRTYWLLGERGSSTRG", "assay": "Cellular cGMP production assay, human NPR1 expressing CHO-K1 cells (CisBio HTRF)", "format": "cell-based", "conditions": "for AC50: cGMP production, 30 min at 37° C., 12-point dose-response from 30 μM; for Human NPR1 Amax (% of ANP): maximum cGMP production as percentage of the maximum cGMP produced with ANP", "outline": "as §1"}, "[1]": {"conditions": "cGMP production, monkey NPR1 CHO-K1 cells, 30 min at 37° C., 12-point dose-response from 30 μM, read-out: Monkey NPR1 AC50"}}, "note": "Read-outs that look alike come from different tables or passages of the source."}
{"smiles": "CCC(N(C)c1nc2c(c(N[C@@H](CN3C4CCCC3CCC4)c3cnn(C)c3)n1)C[C@H](c1ccccc1)CC2)C12CC(C(=O)O)(C1)C2", "note": "(stereo partly drawn) [Compound 74, 3-(1-(((R)-4-(((R)-2-((1S,5S)-9-azabicyclo[3.3.1]nonan-9-yl)-1-(1-methyl-1H-pyrazol-4-yl)ethyl)amino)-6-phenyl-5,6,7,8-tetrahydroquinazolin-2-yl)(methyl)amino)-1l3-propyl)bicyclo[1.1.1]pentane-1-carboxylic acid]", "values": [{"measurement": "AC50", "setting": "monkey NPR1", "result": 167, "unit": "nM"}, {"measurement": "Monkey NPR1 Amax (% of ANP)", "setting": "monkey NPR1; monkey NPR1 CHO-K1 cells", "result": "117.270 % of ANP"}, {"measurement": "AC50", "setting": "human NPR1", "result": 246, "unit": "nM"}, {"measurement": "Human NPR1 Amax (% of ANP)", "setting": "human NPR1", "result": "102.182 % of ANP"}]}
{"smiles": "CC[C@H]([C@H]1CC[C@H](C(=O)O)CC1)N(C)c1nc2c(c(N[C@@H](CN3CCC[C@H](C)C3)c3cnn(C)c3)n1)C[C@@H](c1cccc(F)c1)CC2", "note": "[Compound 75, (1R,4r)-4-((R)-1-(((S)-6-(3-fluorophenyl)-4-(((R)-1-(1-methyl-1H-pyrazol-4-yl)-2-((S)-3-methylpiperidin-1-yl)ethyl)amino)-5,6,7,8-tetrahydroquinazolin-2-yl)(methyl)amino)propyl)cyclohexane-1-carboxylic acid]", "values": [{"measurement": "AC50", "setting": "monkey NPR1", "result": 162, "unit": "nM"}, {"measurement": "Monkey NPR1 Amax (% of ANP)", "setting": "monkey NPR1; monkey NPR1 CHO-K1 cells", "result": "102.588 % of ANP"}, {"measurement": "AC50", "setting": "human NPR1", "result": 247, "unit": "nM"}, {"measurement": "Human NPR1 Amax (% of ANP)", "setting": "human NPR1", "result": "93.803 % of ANP"}]}
{"smiles": "CC[C@@H](Nc1nc2c(c(N[C@@H](CN3CCC[C@H](C)C3)c3cnn(CC)c3)n1)CN(c1cccc(F)c1)CC2)[C@H]1CC[C@H](C(=O)O)CC1", "note": "[Compound 76, (1R,4r)-4-((R)-1-((4-(((R)-1-(1-ethyl-1H-pyrazol-4-yl)-2-((S)-3-methylpiperidin-1-yl)ethyl)amino)-6-(3-fluorophenyl)-5,6,7,8-tetrahydropyrido[4,3-d]pyrimidin-2-yl)amino)propyl)cyclohexane-1-carboxylic acid]", "values": [{"measurement": "AC50", "setting": "monkey NPR1; [1]", "result": 147, "unit": "nM"}, {"measurement": "Monkey NPR1 Amax (% of ANP)", "setting": "monkey NPR1; monkey NPR1 CHO-K1 cells", "result": "100.861 % of ANP"}, {"measurement": "AC50", "setting": "human NPR1", "result": 247, "unit": "nM"}, {"measurement": "Human NPR1 Amax (% of ANP)", "setting": "human NPR1", "result": "100.752 % of ANP"}]}
{"smiles": "CC[C@@H](N(C)c1nc2c(c(N[C@@H](CN3C4CCCC3CC4)c3cnc(C)s3)n1)C[C@H](c1cccc(F)c1)CC2)C12CC(C(=O)O)(C1)C2", "note": "[Compound 77, 3-((1R)-1-(((6R)-4-(((1S)-2-(8-azabicyclo[3.2.1]octan-8-yl)-1-(2-methylthiazol-5-yl)ethyl)amino)-6-(3-fluorophenyl)-5,6,7,8-tetrahydroquinazolin-2-yl)(methyl)amino)propyl)bicyclo[1.1.1]pentane-1-carboxylic acid]", "values": [{"measurement": "AC50", "setting": "monkey NPR1", "result": 134, "unit": "nM"}, {"measurement": "Monkey NPR1 Amax (% of ANP)", "setting": "monkey NPR1; monkey NPR1 CHO-K1 cells", "result": "96.715 % of ANP"}, {"measurement": "AC50", "setting": "human NPR1", "result": 249, "unit": "nM"}, {"measurement": "Human NPR1 Amax (% of ANP)", "setting": "human NPR1", "result": "95.666 % of ANP"}]}
{"smiles": "CC[C@H]([C@H]1CC[C@H](C(=O)O)CC1)N(C)c1nc2c(c(N[C@@H](CN3CCC4CC4C3)c3cnn(C)c3)n1)C[C@H](c1ccccc1)CC2", "note": "(stereo partly drawn) [Compound 78, (1R,4r)-4-((1R)-1-(((6R)-4-(((1R)-2-(3-azabicyclo[4.1.0]heptan-3-yl)-1-(1-methyl-1H-pyrazol-4-yl)ethyl)amino)-6-phenyl-5,6,7,8-tetrahydroquinazolin-2-yl)(methyl)amino)propyl)cyclohexane-1-carboxylic acid]", "values": [{"measurement": "AC50", "setting": "monkey NPR1; [1]", "result": 212, "unit": "nM"}, {"measurement": "Monkey NPR1 Amax (% of ANP)", "setting": "monkey NPR1; monkey NPR1 CHO-K1 cells", "result": "102.158 % of ANP"}, {"measurement": "AC50", "setting": "human NPR1", "result": 254, "unit": "nM"}, {"measurement": "Human NPR1 Amax (% of ANP)", "setting": "human NPR1", "result": "99.406 % of ANP"}]}
{"smiles": "CC[C@H]([C@H]1CC[C@H](C(=O)O)CC1)N(C)c1nc2c(c(N[C@@H](CN3C4CCCC3CC(O)C4)c3cnn(CC)c3)n1)C[C@H](c1cccc(F)c1)CC2", "note": "(stereo partly drawn) [Compound 79, (1R,4r)-4-((1R)-1-(((6R)-4-(((1R)-1-(1-ethyl-1H-pyrazol-4-yl)-2-((1R,5S)-3-hydroxy-9-azabicyclo[3.3.1]nonan-9-yl)ethyl)amino)-6-(3-fluorophenyl)-5,6,7,8-tetrahydroquinazolin-2-yl)(methyl)amino)propyl)cyclohexane-1-carboxylic acid]", "values": [{"measurement": "AC50", "setting": "monkey NPR1", "result": 327, "unit": "nM"}, {"measurement": "Monkey NPR1 Amax (% of ANP)", "setting": "monkey NPR1; monkey NPR1 CHO-K1 cells", "result": "104.610 % of ANP"}, {"measurement": "AC50", "setting": "human NPR1", "result": 257, "unit": "nM"}, {"measurement": "Human NPR1 Amax (% of ANP)", "setting": "human NPR1", "result": "101.351 % of ANP"}]}
